Assay results: paper PMC8989696, “Characterization of furathiocarb metabolism in in-vitro human liver microsomes and recombinant cytochrome P450 enzymes” (Toxicology Reports, 2022)
Marks after values point to notes of the source that are not given here.

Columns and labels:
Assay type in all cases: in vitro ADME
[1] = Correlation of furathiocarb metabolite formation with model CYP substrate activities in ten human hepatic microsomes; settings: 20 min, n = 10; for Linear correlation coefficient, Carbofuran metabolic pathway: 50 μM furathiocarb
Description: A set of ten livers was used to assess the metabolism of furathiocarb in the individual livers as well as to correlate the activities with a model CYP substrate. (Detailed information is available as Supplementary materials).
(§1) The kinetic parameters Vmax and Km were calculated by nonlinear regression. Bivariate linear Pearson’s correlation coefﬁcients (r2) were calculated between metabolite formations and model activities in the livers. GraphPad Prism 9 Software (Inc., San Diego, CA) Prism 9.0.0 (San Diego, CA) was used for kinetic parameters and correlation coefﬁcients analysis. The IC50 values were determined by linear regression analysis using OriginPro 2020 (MicroCal Software, Inc., Northampton, MA.
Metabolites of bupropion, amodiaquine, tolbutamide, omeprazole, dextromethorphan, chlorzoxazone, and midazolam were analyzed by a Shimadzu VP series high-performance liquid chromatograph with an autoinjector (Shimadzu, Kyoto, Japan). The analytical column was a Waters Symmetry C18 (3.9 mm x 150 mm, particle size of 5 µm) together with a Lichospher 100 RP-18 4.0 mm x 4.0 mm precolumn (Merck, Darmstadt, Germany). Chromatographic methods were isocratic, except in the case of omeprazole when a linear gradient elution from 15 to 35% A in 8 min was used. Mobile phases were pumped at a flow rate of 1.0 ml/min. The injection volume used was 20 µl. The concentrations of metabolites were calculated from peak height ratios of the UV chromatograms on the basis of standard calibration curves of authentic metabolites. Metabolites of ethoxyresorufin, ethoxycoumarin, coumarin, and pentoxyresorufin were analyzed fluorometrically. […] Fresh […] dilutions from stock solution of DMSO were used for each assay. The final amount of DMSO was 1% in incubation mixtures. For chlorzoxazone 6-hydroxylation the solvent was evaporated because of the potent inhibition effect of DMSO on CYP2E1, and the residue was diluted with 10 µl of lipid solution. Lipid solution was prepared by adding 8 µl of dimethyldioctadecylammonium-bromide in chloroform (100 mg/ml) to 200 µl L-α-phosphatidylethanolamine dioleyl [C18:1 (cis)-9] in chloroform. This mixture was evaporated with a stream of nitrogen flow, 2 ml of water was added, and the final mixture was sonicated (Branson Sonifier 250 GWB) on an ice bath for 10 min by using 50% power.
Cytochrome P450 enzyme activity characterizations as well as incubations with individual human hepatic microsomes were performed at the same time. A bank of 10 livers was used to assess the metabolism of furathiocarb in individual livers as well as to correlate the activities with model P450 substrate activities. A correlation was performed between the formation of furathiocarb metabolites and each CYP activity across the human liver set. For all data points the mean of duplicate incubations were used. […] Bivariate linear Pearson’s correlation coefficients (r) were calculated between metabolite formations and model activities in livers. […]

CYP2C9 = molecular target: T1, CYP2C9 (Homo sapiens, UniProt P11712); assay: N-in-one CYP inhibition assay, pooled human hepatic microsomes, CYP2C9 (OH-TOL)
T1 construct: from tissue; host or cells: pooled human liver microsomes (n = 10 donors)
Description: (§2) N-in-one (“cocktail”) assay for measuring major CYP activities simultaneously, [55], [56] was employed to investigate human CYP-furathiocarb inhibitory interactions in pooled human hepatic microsomes. Furathiocarb (ﬁnal concentrations in the incubation mixture were 1, 5, 25, 50, and 100 µM) was added to the incubation mixture. The N-in-one was used earlier for the study of pesticide interactions and the details of the incubations with furathiocarb are described in Supplementary materials.
as §1
(§3) N-in-one assay was performed to investigate human CYP-furathiocarb inhibitory interactions. Furathiocarb (ﬁnal concentrations in the incubation mixture were 1, 5, 25, 50, and 100 µM) was added to the incubation mixture.
(§4) The N-in-one assay, analytical method and authentic standards have been described previously (Abass and Pelkonen 2013; Tolonen et al. 2007; Turpeinen et al. 2005). […]

[2] = system: human CYP activities other than CYP1A2, CYP2B6, CYP2C9, CYP2C19; assay: N-in-one CYP inhibition assay, pooled human hepatic microsomes, other CYP activities; settings: pooled human liver microsomes (n = 10), pH 7.4, furathiocarb 1–100 µM, read-out: Other IC50 values (remaining CYP activities of N-in-one assay)
Description: as §2, §1, §3, §4

T1 sequence (P11712 whole entry): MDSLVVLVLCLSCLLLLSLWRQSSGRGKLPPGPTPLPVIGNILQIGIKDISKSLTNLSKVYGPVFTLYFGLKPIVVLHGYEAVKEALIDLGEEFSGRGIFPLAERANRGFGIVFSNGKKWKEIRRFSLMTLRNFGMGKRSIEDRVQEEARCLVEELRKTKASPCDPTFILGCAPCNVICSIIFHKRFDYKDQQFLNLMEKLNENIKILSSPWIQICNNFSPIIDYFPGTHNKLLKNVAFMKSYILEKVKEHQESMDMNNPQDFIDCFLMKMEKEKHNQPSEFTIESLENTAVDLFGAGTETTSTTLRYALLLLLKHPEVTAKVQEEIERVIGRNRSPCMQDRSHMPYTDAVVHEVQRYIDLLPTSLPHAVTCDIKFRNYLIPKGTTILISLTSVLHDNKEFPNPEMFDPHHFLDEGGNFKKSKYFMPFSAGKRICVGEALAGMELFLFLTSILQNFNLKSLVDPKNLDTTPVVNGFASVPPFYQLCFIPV

## CCCCOC(=O)N(C)SN(C)C(=O)Oc1cccc2c1OC(C)(C)C2 [furathiocarb, Furathiocarb]
[1]; vs CYP1A1/2 7-Ethoxyresorufin-O-deethylation (EROD)
  Linear correlation coefficient, Carbofuran metabolic pathway: 0.2493
[1]; vs CYP2A6 Coumarin-7-hydroxylation (OH-COU)
  Linear correlation coefficient, Carbofuran metabolic pathway: 0.2303
[1]; vs CYP2A6 Coumarin-7-hydroxylation (OH-COU), 100 μM furathiocarb
  Linear correlation coefficient, -OH/SO4 furathiocarb Metabolite B: 0.1259
[1]; vs CYP2B6 Bupropion hydroxylation (OH-BUP)
  Linear correlation coefficient, Carbofuran metabolic pathway: 0.0023
[1]; vs CYP2C8 Amodiaquine-desethylation (deEt-AMO)
  Linear correlation coefficient, Carbofuran metabolic pathway: 0.1814
[1]; vs CYP2C9 Tolbutamide hydroxylation (OH-TOL)
  Linear correlation coefficient, Carbofuran metabolic pathway: 0.1126
[1]; vs CYP2C19 Omeprazole-5-hydroxylation (5-OH-OME), P < 0.0001
  Linear correlation coefficient, Carbofuran metabolic pathway: 0.9074 **
[1]; vs CYP2C19 Omeprazole-5-hydroxylation (5-OH-OME), 100 μM furathiocarb
  Linear correlation coefficient, -OH/SO4 furathiocarb Metabolite A: 0.4683
[1]; vs CYP2D6 Dextromethorphan-O-desmethylation (O-dem-DEX)
  Linear correlation coefficient, Carbofuran metabolic pathway: 0.0059
[1]; vs CYP2E1 Chlorzoxazone-6-hydroxylation (OH-CLZ)
  Linear correlation coefficient, Carbofuran metabolic pathway: 0.1101
[1]; vs CYP3A4 Midazolam-1'-hydroxylation (1-OH-MDZ), P = 0.0001
  Linear correlation coefficient, Carbofuran metabolic pathway: 0.8513 *
[1]; vs CYP3A4 Midazolam-1'-hydroxylation (1-OH-MDZ), 100 μM furathiocarb
  Linear correlation coefficient, -OH/SO4 furathiocarb Metabolite B: 0.3282
[1]; vs CYP3A4 Omeprazole sulfoxidation (SO2-OME), P < 0.0001
  Linear correlation coefficient, Carbofuran metabolic pathway: 0.9632 **
[1]; vs CYP3A4 Omeprazole sulfoxidation (SO2-OME), 100 μM furathiocarb
  Linear correlation coefficient, -OH/SO4 furathiocarb Metabolite B: 0.2793
CYP2C9
  IC50: 16.5 to 18.5 µM
[2]
  IC50 at 20 min: > 100 µM
